Experimental data reported in patent US20100034901A1, “ANIMAL FEED COMPOSITIONS” (priority 2006, published 2010).
Entries after “also recorded” stand apart in the source; their conditions may differ.

How the values were obtained:
Duroc and Yorkshire pigs = assay: Boron supplementation and OC-associated lameness in swine (Example 1); type: in vivo, pig
Experimental: The basal diet consisted of commercial corn-soy diet containing 10 ppm boron.
Test diet group B was fed a basal diet plus 25 mg/kg boron as sodium borate decahydrate (borax). Test diet group A was fed a basal diet plus 25 mg/kg boron as sodium borate decahydrate (borax) and 250 mg/kg ascorbic acid.
Pigs were weighed at the beginning of the study, 4 weeks later and every 3 weeks until the end of the study. Animals were scored for soundness on a 5-point scale at each weighing. (Five-point scale: 1=no soundness defects; 2=minor soundness issues but still sound enough for retention as breeding animal; 3=not sound enough for retention for breeding but still marketable; 4=unsound, likely to be rejected at slaughter; 5=severely lame, requiring euthanasia for humane reasons.) Grading was done by the caretaker and the investigator at all weighing times. An experienced independent treatment-blind rater also evaluated the soundness of each animal and the ratings he provided were compared with the ratings of the caretaker and investigator by use of Cohen's Kappa test.
The animals were housed in a modern curtain sided barn with deep straw bedding, with ad libitum access to feed and water. Waterers and feeders were on a concrete pad but the remainder of the flooring was deep straw over a ground limestone and sand base. Floor space allowances exceeded the recommendations of the Guide for the Care and Use of Agricultural Animals in Agricultural Research and Teaching, First Revised Edition, 1999. Federation of Animal Science Societies. Savoy, Ill.
The basal diet (no boron supplemented) was analysed and found to contain boron at the rate of 10 ppm which is typical for a corn-soybean meal based diet.
At the end of the study the pigs were transported to a laboratory where they were euthanized and necropsied. Six pigs in each of group B and group A were put on the control diet for 7 days at the end of the study.
At necropsy, samples of liver, heart, kidney, fat, skeletal muscle, proximal tibia, blood, and the rostral snout were retained and frozen at −40° C. prior to chemical analysis. All joints of the axial skeleton were evaluated for the presence of gross lesions of osteochondrosis and graded on a 5 point scale. (5-point scale: 1=no gross abnormalities; 2=minor imperfections in articular conformation or articular reddening present but no cartilage erosions; 3=cartilage intact but surface irregularities of the cartilage are present; 4=fissuring or erosion of articular cartilage is obvious; 5=full thickness cartilage lesions or cartilage flaps, osteochondritis dissecans obviously present).
The proximal femur (femoral head) and articular surfaces and growth plates associated with the stifle, hock, shoulder, elbow and carpus were sectioned with a band saw and approx. 0.5 to 1.0 cm sections fixed in formalin. […]
Mean joint lesion scores, growth rate and soundness scores by treatment and by factors boron and ascorbate were compared using an analysis of variance and t-test as appropriate. Soundness scores were dichotomised into binary categorical variables for lameness (soundness score>2) and for absence of defects (soundness<2), and the binary variables analysed by chi-square and logistic regression.
Tissue specimens stained with H&E were examined microscopically for the presence of lesions of osteochondrosis. […] Each tissue section was scored by a treatment-blind board-certified pathologist. […]

crossbred pigs = assay: 28-day feeding trial: phosphorus digestibility and excretion, feed conversion; type: in vivo, pig; conditions: 50 ppm Added B; 28 days; N 12 pens
Experimental: Pigs were randomly allocated to 24 pens of 6 pigs per pen in a thermoneutral controlled environment barn with steel grid flooring. Each pen was equipped with a single-hole feeder. Water was available free-choice from a nipple drinker. […] Feces were collected on the last 3 days of the study from each pen and a pooled aliquot was dried and submitted for chemical analysis. Yttrium oxide was added to the diet at 0.05% and served as a marker for phosphorus digestibility. Pig growth and feed consumption was measured at the end of the study with the pen as the experimental unit. Data was analyzed for effects of boron and calcium by univariate and multivariate analysis of variance and t-tests.

pig cartilage = assay: Glycosaminoglycan study: sGAG in articular cartilage plugs of hock and elbow joints; type: in vivo; conditions: pigs fed 50 ppm boron
Experimental: Hock joints and elbow joints were obtained at necropsy from pigs in two feeding groups: one group having been fed a commercial ration supplemented with 50 mg B/kg feed and the other being fed only the standard commercial pig ration.
Cartilage plugs were harvested from the articular surfaces of 40 hock and elbow joints using a #5 (10.5 mm) cork borer. The samples were papain digested and analyzed for concentration of sulfated glycosaminoglycan (sGAG) using a spectrophotometric microplate analysis procedure adapted from Farndale, et al (1986), using a chondrotin sulfate standard. This method measures total sulfated glycosaminoglycan, most of which is chondrotin sulfate and keratan sulfate components of aggrecan. Aggrecan is the large aggregating proteoglycan of cartilage responsible for creating and maintaining the osmotic pressure of cartilage. Quanititation of sGAG concentration thus provides a measure of the weight-bearing and anti-friction properties of cartilage and is a measure of cartilage quality and durability.

sows and their litters = assay: Sow and litter trial in a commercial swine operation during a PRRSV outbreak; type: in vivo; conditions: sows given 1 mg boron per pound BW per day
Experimental: To test the effect of boron on sows and their litters, a trial was established in a large commercial swine operation during an outbreak of porcine viral reproductive and respiratory disease (PRRSV). Boron was administered orally to a group of 51 sows individually housed in crates at the rate of 1 mg boron per pound BW per day beginning 1 week prior to farrowing and continuing until the piglets were weaned at 14 days of age. […] Boron treatment was supplied as a single daily dosing and was discontinued at weaning. All sows were fed a standard commercial sow diet.

[1] = tested on: pigs of about 100 kg body weight; assay: 3-NPB study in pigs with or without supplemental boron
Experimental: The pigs were evaluated for lameness daily and euthanatized on day 13 and the joints and other organs were examined.

turkeys = assay: Turkey Study 3: growth, lameness scoring, femur breaking force, cartilage indenter test; type: in vivo; conditions: for leg weakness scores (mean): 5 point scale, control 3.0; for growth response (bird weight) / growth rates: groups with boron versus groups without boron
Description: 250 turkeys were selected at random at week 11 and divided into 5 treatment groups: 1) control, 2) ascorbate only “(VC”), 3) boron only (“B”), 4), boron and ascorbate (“B+C”), and 5) ½ rate boron and full rate ascorbate (“LoB+C”). Full rates of both boron and ascorbate were as described for study 1. At 17 weeks, all birds were weighed, scored for lameness/mobility/gait abnormality using the five point scale used in study 1, and sacrificed. The femur was dissected from each leg of each bird and subjected to an ultimate breaking force analysis. Cartilage at the femoral distal condyle was subjected to an indenter test.
For the lameness/mobility/gait abnormality scoring, three graders were used. Two of the graders were “blind” graders unaware of each turkey's grouping. The third grader was a “biased” grader aware of each turkey's grouping. Partial grading on the 5 point scale described above was allowed. FIG. 11 presents the cross-tabulation of the graders' results.

[2] = tested on: sows, piglets and pigs on farms; type: in vivo; conditions: sows on 1 mg/kg body weight boron as boric acid; usual mortality for this farm about 5 to 7%
Experimental: Boron was added to the diet of sows at 1 mg/kg body weight as boric acid. […] Among a group of 95 piglets the birth to weaning mortality was 2 piglets. The usual mortality for this farm was about 5 to 7%. These piglets remained on boron 50 ppm plus ascorbate 125 ppm. One pig was euthanized and examined at a weight of about 85 pounds. […] All bones of the appendicular skeleton were sectioned on the band saw.
An Iowa farm treated a group of about 100 pigs with 50 ppm boron as boric acid. None of these pigs developed any signs of lameness or unsoundness. The farmer reported that these pigs are the most sound he has raised. The estimated previous lameness/unsoundness rate was about 25 to 30%, and zero in the test group. […] The absence of lameness and hock swelling was observed. Two pigs with hock swelling were euthanised from among the younger and older pigs not treated with boric acid. […] An older pig of about 250 pounds body weight with severe lameness in the right hock was euthanised.

[3] = boron supplementation 50 ppm, 3-NPB none

SMILES | TBlue staining intensity (semi-quantitative measure of sGAG content of cartilage) (Duroc and Yorkshire pigs; boron supplemented group vs unsupplemented pigs) | joint condition vs basal diet with no supplemental boron (FIG. 1) (Duroc and Yorkshire pigs; growing swine supplemented with boron) | Growth plate lesions associated with widening, found in % of tissues (Duroc and Yorkshire pigs; pigs receiving 25 ppm boron, microscopic sections of articular cartilage and growth plate) [%] | Articular cartilage lesions (necrosis, hemorrhage, infarction, or streaks), found in % of tissues (Duroc and Yorkshire pigs; pigs receiving 25 ppm supplemental B, microscopic sections) [%] | occurrence of OC in pigs (Duroc and Yorkshire pigs; supplemental boron at 25 ppm to 50 ppm, FIGS. 1, 3 and 4) | Feed Conversion Ratio (feed/gain) (crossbred pigs) | sGAG concentration (dry matter basis) in the cartilage (pig cartilage) [ng/g] | litter size at birth (sows and their litters) | piglet birth weight (sows and their litters) | Clinical Lameness Score: Normal (count of pigs) [1, 3] | Clinical Lameness Score: Visible Lameness (count of pigs) [1, 3] | prevalence and severity of osteochondrosis lesions (shoulder, stifle, hock and elbow joints) ([1]; supplemental boron and no 3-NPB) | leg weakness scores (mean) (turkeys) | improvement of bone strength as compared with the control (turkeys; boron alone, 3-point bending test of the femur) [%] | effect on femur break force (main effects analysis, FIG. 26) (turkeys; week 11 to 17) | growth response (bird weight) / growth rates (turkeys; week 11 to 17) | growth response (bird weight) / growth rates (turkeys; week 11 to 17, listed as B) | birth to weaning mortality among a group of 95 piglets [2] [piglets] | bone strength as measured by 3-point bending test (turkeys; administered in drinking water) | cartilage strength by indenter test at the femoral distal condyle (FIG. 27) (turkeys; week 11 to 17)
[B] [Boron] | consistently higher | healthier joints | 19 | 4 | significant reduction | 2.32 | 11050 | no effects | no effects | 5 | 0 | lowest prevalence of lesions and the lowest severity | 2.3 | 7.8 | large effect | improved | significant | – | – | –
OB(O)O [boric acid] | – | – | – | – | – | – | – | – | – | – | – | – | – | – | – | – | – | 2 | – | –
O=C1O[C@H]([C@@H](O)CO)C(O)=C1O [ascorbate, ascorbic acid, reference compound] | – | – | – | – | – | – | – | – | – | – | – | – | did not significantly improve | – | lesser effect | – | – | – | slightly improved bone strength | statistically significant effect; also recorded: improved cartilage strength
